From US20220023401A1 (priority 2020, published 2022)
Values joined by “and” are separate entries in the source; they are usually repeats but may differ in a detail not shown here. Equal values may be shown once.

Tests used:
Aβ1-42 = system: Aβ1-42; set-up: species or system guinea pigs; conditions: guinea pig, in vivo
MvF4 Th (SEQ ID NO: 44) = system: MvF4 Th (SEQ ID NO: 44); set-up: species or system guinea pigs; conditions: guinea pig, in vivo
[1] = system: HBsAg2 Th (SEQ ID NO: 45); set-up: species or system guinea pigs; conditions: guinea pig, in vivo
[2] = system: sera from vaccinated baboons (anti-Aβ antibodies); assay type: binding
[3] = system: antisera from immunized Cynomolgus macaques; assay type: binding; set-up: unit not given here
baboon anti-Aβ antibody = assay type: binding, baboons
[4] = system: Peripheral blood mononuclear cells (PBMC); assay type: cell-based, human
[5] = system: Peripheral Blood Mononuclear Cells (PBMCs); assay type: cell-based, Cynomolgus macaque
[6] = system: Peripheral blood mononuclear cells (PBMC); assay type: cell-based, human; remark: listed apart in the source

Substance	ELISA Titer (Log10) [2]	Specificity analysis of antisera (ELISA reactivity with peptide) [3]	other results
Aβ1-14-ϵK-HBsAg2 Th [SEQ ID NO: 63]	–	–	Aβ1-42 ELISA (SEQ ID NO: 1) Log10 Titer (Aβ1-42): 3.596 Log10 and 3.653 Log10 and 3.696 Log10 and 3.681 Log10 and 3.836 Log10 and 3.744 Log10; Aβ1-42 ELISA (SEQ ID NO: 1) Log10 Titer, Geomean (Aβ1-42): 3.700 Log10; MvF4 Th ELISA (SEQ ID NO: 44) Log10 Titer (MvF4 Th (SEQ ID NO: 44)): 0.575 Log10 and 0.423 Log10 and 0.380 Log10 and 0.279 Log10 and 0.336 Log10 and 0.425 Log10; MvF4 Th ELISA (SEQ ID NO: 44) Log10 Titer, Geomean (MvF4 Th (SEQ ID NO: 44)): 0.393 Log10; reactivity against the two T helper epitopes (SEQ ID NOs: 44 and 45) (MvF4 Th (SEQ ID NO: 44)): little or no reactivity; HBsAg2 Th ELISA (SEQ ID NO: 45) Log10 Titer, Geomean [1]: 0.375 Log10
Aβ1-14-ϵK-KKK-MvF4 Th [SEQ ID NO: 62]	–	–	Aβ1-42 ELISA (SEQ ID NO: 1) Log10 Titer, Geomean (Aβ1-42): 4.208 Log10; MvF4 Th ELISA (SEQ ID NO: 44) Log10 Titer (MvF4 Th (SEQ ID NO: 44)): 0.268 Log10 and 0.216 Log10 and 0.196 Log10 and 0.179 Log10 and 0.332 Log10 and 0.286 Log10; MvF4 Th ELISA (SEQ ID NO: 44) Log10 Titer, Geomean (MvF4 Th (SEQ ID NO: 44)): 0.240 Log10; reactivity against the two T helper epitopes (SEQ ID NOs: 44 and 45) (MvF4 Th (SEQ ID NO: 44)): little or no reactivity; HBsAg2 Th ELISA (SEQ ID NO: 45) Log10 Titer, Geomean [1]: 0.397 Log10
ISEVKMDAEF (PEPTIDE (1)..(10) Abeta -6-4 or APP 770(I666-F675); listed as Homo sapiens) [SEQ ID NO: 11]	0.20 Log10 and 0.15 Log10 and 0.13 Log10	0.055 and 0.058 and 0.063 and 0.062	–
YEVHHQKLVF (PEPTIDE (1)..(10) Abeta 10-19 or APP 770(Y681-F690); listed as Homo sapiens) [SEQ ID NO: 25]	0.16 Log10 and 0.43 Log10 and 0.15 Log10 and 0.22 Log10	0.092 and 0.069 and 0.058	–
EVKMDAEFRH (PROPEP (1)..(10) Abeta -4-6 or APP 770(E668-H677); listed as Homo sapiens) [SEQ ID NO: 13]	0.19 Log10 and 0.23 Log10 and 0.16 Log10 and 0.14 Log10	0.046 and 0.047 and 0.054	–
AEFRHDSGYE (PEPTIDE (1)..(10) Abeta 2-11 or APP 770(A673-E682); listed as Homo sapiens) [SEQ ID NO: 17]	0.25 Log10 and 0.35 Log10 and 0.19 Log10	0.058 and 0.059 and 0.054 and 0.060	Percent (%) Inhibition ELISA after peptide pre-absorption of sera (baboon anti-Aβ antibody): 0%
HHQKLVFFAE (PEPTIDE (1)..(10) Abeta 13-22 or APP 770(H684-E693); listed as Homo sapiens) [SEQ ID NO: 28]	0.19 Log10 and 0.22 Log10 and 0.13 Log10 and 0.12 Log10	0.044 and 0.052 and 0.046 and 0.032	–
RHDSGYEVHH (PEPTIDE (1)..(10) Abeta 5-14 or APP 770(R676-H685); listed as Homo sapiens) [SEQ ID NO: 20]	0.23 Log10 and 0.34 Log10 and 0.27 Log10 and 0.41 Log10	0.296 and 0.400 and 0.453 and 0.461	–
EFRHDSGYEV (PEPTIDE (1)..(10) Abeta 3-12 or APP 770(E674-V683); listed as Homo sapiens) [SEQ ID NO: 18]	0.24 Log10 and 0.30 Log10 and 0.18 Log10	0.047 and 0.060 and 0.042 and 0.052	Percent (%) Inhibition ELISA after peptide pre-absorption of sera (baboon anti-Aβ antibody): 0% and 1% and 3%
VKMDAEFRHD (PEPTIDE (1)..(10) Abeta -3-7 or APP 770(V669-D678); listed as Homo sapiens) [SEQ ID NO: 14]	0.27 Log10 and 0.46 Log10 and 0.48 Log10 and 0.55 Log10	0.068 and 0.053 and 0.061 and 0.054	–
KMDAEFRHDS (PEPTIDE (1)..(10) Abeta -2-8 or APP 770(K670-S679); listed as Homo sapiens) [SEQ ID NO: 15]	0.26 Log10 and 0.36 Log10 and 0.41 Log10 and 0.51 Log10	–	–
EEISEVKMDA (PEPTIDE (1)..(10) Abeta -8-2 or APP 770(E664-A673); listed as Homo sapiens) [SEQ ID NO: 9]	0.24 Log10 and 0.30 Log10 and 0.21 Log10 and 0.22 Log10	0.082 and 0.092 and 0.081 and 0.076	–
phytohaemagglutinin [PHA]	–	–	IFN-γ mean cytokine concentration, Week 0 [4]: >320.00 pg/mL; IFN-γ mean cytokine concentration, Week 16 [4]: >318.91 pg/mL; IL-2 mean cytokine concentration, Week 0 [4]: 10.38^7 pg/mL; IL-2 mean cytokine concentration, Week 16 [4]: 12.84^7 pg/mL; IL-6 mean cytokine concentration, Week 0 [4]: >320.00 pg/mL; IL-6 mean cytokine concentration, Week 16 [4]: >320.00 pg/mL; IL-10 mean cytokine concentration, Week 0 [4]: 173.83 pg/mL; IL-10 mean cytokine concentration, Week 16 [4]: >162.77 pg/mL; TNF-α mean cytokine concentration, Week 0 [4]: >313.01 pg/mL; TNF-α mean cytokine concentration, Week 16 [4]: >300.87 pg/mL; IL-2 cytokine concentration [5]: 97.5 ± 6.6 pg/mL and 90.6 ± 12.4 pg/mL and 96.1 ± 13.3 pg/mL; IL-6 cytokine concentration [5]: 69.1 ± 12.0 pg/mL and 70.6 ± 15.7 pg/mL and 66.2 ± 7.3 pg/mL; TNF-α cytokine concentration [5]: 91.0 ± 29.1 pg/mL and 96.1 ± 22.2 pg/mL and 89.0 ± 13.7 pg/mL; Mean stimulation index, Difference [6]: −0.98; Mean stimulation index, Week 0 [6]: 28.73; Mean stimulation index, Week 16 [6]: 27.75; proliferation response by lymphocytes when added to the culture medium ([6]; 10 μg/mL): positive proliferation responses
GYEVHHQKLV (PEPTIDE (1)..(10) Abeta 9-18 or APP 770(G680-V689); listed as Homo sapiens) [SEQ ID NO: 24]	0.13 Log10 and 0.27 Log10 and 0.19 Log10 and 0.12 Log10	0.055 and 0.067 and 0.052 and 0.059	–
TEEISEVKMD (PEPTIDE (1)..(10) Abeta -9-1 or APP 770(T663-D672); listed as Homo sapiens) [SEQ ID NO: 8]	0.23 Log10 and 0.26 Log10 and 0.16 Log10 and 0.15 Log10	0.075 and 0.084 and 0.061 and 0.078	–
HQKLVFFAED (PEPTIDE (1)..(10) Abeta 14-23 or APP 770(H685-D694); listed as Homo sapiens) [SEQ ID NO: 29]	0.18 Log10 and 0.21 Log10 and 0.13 Log10	0.050 and 0.058 and 0.047	–
EISEVKMDAE (PEPTIDE (1)..(10) Abeta -7-3 or APP 770(E665-E674); listed as Homo sapiens) [SEQ ID NO: 10]	0.23 Log10 and 0.25 Log10 and 0.16 Log10 and 0.14 Log10	0.060 and 0.056 and 0.064 and 0.053	–
SEVKMDAEFR (PEPTIDE (1)..(10) Abeta -5-5 or APP 770(S667-R676); listed as Homo sapiens) [SEQ ID NO: 12]	0.21 Log10 and 0.24 Log10 and 0.16 Log10 and 0.13 Log10	0.056 and 0.053 and 0.054 and 0.050	–
MDAEFRHDSG (PEPTIDE (1)..(10) Abeta -1-9 or APP 770(M671-G680); listed as Homo sapiens) [SEQ ID NO: 16]	0.26 Log10 and 0.32 Log10 and 0.16 Log10 and 0.17 Log10	0.056 and 0.061 and 0.051	Percent (%) Inhibition ELISA after peptide pre-absorption of sera (baboon anti-Aβ antibody): 8%
QKLVFFAEDV (PEPTIDE (1)..(10) Abeta 15-24 or APP 770(Q686-V695); listed as Homo sapiens) [SEQ ID NO: 30]	–	0.043 and 0.055 and 0.062 and 0.059	–
SGYEVHHQKL (PEPTIDE (1)..(10) Abeta 8-17 or APP 770(S679-L688); listed as Homo sapiens) [SEQ ID NO: 23]	–	0.097 and 0.071 and 0.077 and 0.082	–
HDSGYEVHHQ (PEPTIDE (1)..(10) Abeta 6-15 or APP 770(H677-Q686); listed as Homo sapiens) [SEQ ID NO: 21]	–	0.266 and 0.494 and 0.419 and 0.332	–
FRHDSGYEVH (PEPTIDE (1)..(10) Abeta 4-13 or APP 770(F675-H684); listed as Homo sapiens) [SEQ ID NO: 19]	0.20 Log10 and 0.40 Log10 and 0.22 Log10 and 0.30 Log10	0.085 and 0.076 and 0.066 and 0.096	–
